Assay results published in ChEMBL document CHEMBL5705899 (Biochem J, 2014).
The source made the active and inactive calls. The calls are words filed in the database; no cut-off is given here.

Columns and labels:
[1] = biological target: Serine/threonine-protein kinase 26 (Homo sapiens) (UniProt Q9P289); experiment: Inhibition of recombinant human N-terminal His6-tagged MST4 (1 to 416 residues) expressed in baculovirus infected Sf21 cells assessed as remaining activity at 1 uM using MBP as substrate incubated for 30 mins in presence of [gamma-33P]ATP by filter binding method relative to control
[2] = biological target: T1, 3-phosphoinositide-dependent protein kinase 1 (Homo sapiens) (UniProt O15530); experiment: Inhibition of recombinant human His6-tagged PDK1 (52 to 556 residues) expressed in baculovirus infected Sf21 cells assessed as remaining activity at 1 uM using PDKtide as substrate incubated for 30 mins in presence of [gamma-33P]ATP by filter binding method relative to control
T1 sequence (whole entry): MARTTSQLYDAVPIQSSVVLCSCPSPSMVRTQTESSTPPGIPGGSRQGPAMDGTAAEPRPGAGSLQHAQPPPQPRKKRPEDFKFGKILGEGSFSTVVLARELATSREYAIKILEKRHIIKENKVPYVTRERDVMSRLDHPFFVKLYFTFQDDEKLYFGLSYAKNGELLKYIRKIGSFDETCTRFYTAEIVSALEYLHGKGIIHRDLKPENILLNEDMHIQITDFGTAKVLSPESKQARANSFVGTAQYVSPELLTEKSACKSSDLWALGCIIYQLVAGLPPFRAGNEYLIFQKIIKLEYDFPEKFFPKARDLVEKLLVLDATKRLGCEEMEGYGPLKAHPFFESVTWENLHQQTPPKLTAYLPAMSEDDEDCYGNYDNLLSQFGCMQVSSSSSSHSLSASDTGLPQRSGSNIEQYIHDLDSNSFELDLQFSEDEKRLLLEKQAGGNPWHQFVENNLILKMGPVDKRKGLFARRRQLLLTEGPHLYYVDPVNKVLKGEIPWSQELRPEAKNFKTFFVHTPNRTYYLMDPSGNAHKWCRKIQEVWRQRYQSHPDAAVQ

[3] = biological target: Casein kinase I isoform delta (Homo sapiens) (UniProt P48730); experiment: Inhibition of recombinant human N-terminal GST-tagged CK1delta (1 to 415 residues) expressed in Escherichia coli assessed as remaining activity at 1 uM using RRKDLHDDEEDEAMSITA as substrate incubated for 30 mins in presence of [gamma-33P]ATP by filter binding method relative to control
[4] = biological target: Ribosomal protein S6 kinase alpha-1 (Homo sapiens) (UniProt Q15418); experiment: Inhibition of recombinant human N-terminal His6-tagged RSK1 (1 to 735 residues) expressed in baculovirus infected Sf21 cells assessed as remaining activity at 1 uM using KKLNRTLSVA as substrate incubated for 30 mins in presence of [gamma-33P]ATP by filter binding method relative to control
[5] = biological target: Tyrosine-protein kinase SYK (Homo sapiens) (UniProt P43405); experiment: Inhibition of recombinant human N-terminal His6-tagged SYK (1 to 635 residues) expressed in baculovirus infected Sf21 cells assessed as remaining activity at 1 uM using Poly (Glu,Tyr) as substrate incubated for 30 mins in presence of [gamma-33P]ATP by filter binding method relative to control
[6] = biological target: Insulin-like growth factor 1 receptor (Homo sapiens) (UniProt P08069); experiment: Inhibition of human IGF1R at 1 uM using polyEY as substrate in presence of 33P-ATP by ProQinase assay
[7] = biological target: Mitogen-activated protein kinase kinase kinase 20 (Homo sapiens) (UniProt Q9NYL2); experiment: Inhibition of human ZAK at 1 uM using MBP as substrate in presence of 33P-ATP by ProQinase assay
[8] = biological target: Serine/threonine-protein kinase Chk2 (Homo sapiens) (UniProt O96017); experiment: Inhibition of human CHK2 at 1 uM using bio-4xCHKT as substrate in presence of 33P-ATP by ProQinase assay
[9] = biological target: Serine/threonine-protein kinase Nek4 (Homo sapiens) (UniProt P51957); experiment: Inhibition of human NEK4 at 1 uM using MBP as substrate in presence of 33P-ATP by ProQinase assay
[10] = biological target: Calcium/calmodulin-dependent protein kinase kinase 1 (Homo sapiens) (UniProt Q8N5S9); experiment: Inhibition of human CAMKK1 at 1 uM using RB-CTF as substrate in presence of 33P-ATP by ProQinase assay
[11] = biological target: Serine/threonine-protein kinase Nek9 (Homo sapiens) (UniProt Q8TD19); experiment: Inhibition of human NEK9 at 1 uM using RBER-GSK3 as substrate in presence of 33P-ATP by ProQinase assay
[12] = biological target: Cyclin-dependent kinase 2/cyclin E1 (Homo sapiens) (UniProt P24864+P24941); experiment: Inhibition of human CDK2/CycE1 at 1 uM using RBER-CHKtide as substrate in presence of 33P-ATP by ProQinase assay; assay type: protein-complex assay
[13] = biological target: Serine/threonine-protein kinase 24 (Homo sapiens) (UniProt Q9Y6E0); experiment: Inhibition of human MST3 at 1 uM using casein as substrate in presence of 33P-ATP by ProQinase assay
[14] = biological target: Serine/threonine-protein kinase PAK 2 (Homo sapiens) (UniProt Q13177); experiment: Inhibition of human PAK2 at 1 uM using bio-4xCHKT as substrate in presence of 33P-ATP by ProQinase assay
[15] = biological target: Ribosomal protein S6 kinase beta-1 (Homo sapiens) (UniProt P23443); experiment: Inhibition of human S6K1 at 1 uM using RBER-GSK3 as substrate in presence of 33P-ATP by ProQinase assay
[16] = biological target: Serine/threonine-protein kinase tousled-like 1 (Homo sapiens) (UniProt Q9UKI8); experiment: Inhibition of human TLK1 at 1 uM using RB-CTF as substrate in presence of 33P-ATP by ProQinase assay
[17] = biological target: Ribosomal protein S6 kinase alpha-1 (Homo sapiens) (UniProt Q15418); experiment: Inhibition of human RPS6KA1 at 1 uM using RBER-CHKtide as substrate in presence of 33P-ATP by ProQinase assay
[18] = biological target: Dual serine/threonine and tyrosine protein kinase (Homo sapiens) (UniProt Q6XUX3); experiment: Inhibition of human RIPK5 at 1 uM using RBER-CHKtide as substrate in presence of 33P-ATP by ProQinase assay
[19] = biological target: G protein-coupled receptor kinase 3 (Homo sapiens) (UniProt P35626); experiment: Inhibition of human GRK3 at 1 uM using casein as substrate in presence of 33P-ATP by ProQinase assay
[20] = biological target: Serine/threonine-protein kinase NLK (Homo sapiens) (UniProt Q9UBE8); experiment: Inhibition of human NLK at 1 uM using RBER-GSK3 as substrate in presence of 33P-ATP by ProQinase assay
[21] = biological target: Calcium/calmodulin-dependent protein kinase type II subunit alpha (Homo sapiens) (UniProt Q9UQM7); experiment: Inhibition of human CAMK2A at 1 uM using RBER-CHKtide as substrate in presence of 33P-ATP by ProQinase assay
[22] = biological target: Phosphatidylinositol 4-kinase type 2-alpha (Homo sapiens, UniProt Q9BTU6); experiment: Inhibition of human PI4K2A using PI/PS as substrate by ADP-Glo assay
Chain of Phosphatidylinositol 4-kinase type 2-alpha (Q9BTU6 whole entry): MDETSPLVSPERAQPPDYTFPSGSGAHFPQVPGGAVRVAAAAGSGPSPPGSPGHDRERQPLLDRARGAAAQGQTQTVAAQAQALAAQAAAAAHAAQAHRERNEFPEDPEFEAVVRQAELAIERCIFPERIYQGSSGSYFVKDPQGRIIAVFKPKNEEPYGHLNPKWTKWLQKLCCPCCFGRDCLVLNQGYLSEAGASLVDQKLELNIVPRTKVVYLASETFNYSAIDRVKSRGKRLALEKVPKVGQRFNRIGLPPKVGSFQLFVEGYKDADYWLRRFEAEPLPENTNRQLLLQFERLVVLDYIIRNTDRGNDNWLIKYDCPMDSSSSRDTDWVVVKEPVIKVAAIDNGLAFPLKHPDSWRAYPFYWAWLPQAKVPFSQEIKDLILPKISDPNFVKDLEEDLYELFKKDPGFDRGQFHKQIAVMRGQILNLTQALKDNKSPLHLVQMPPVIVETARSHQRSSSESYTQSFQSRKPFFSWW

Chain of Ribosomal protein S6 kinase alpha-1 (Homo sapiens) (Q15418 whole entry, the tested form may be a part): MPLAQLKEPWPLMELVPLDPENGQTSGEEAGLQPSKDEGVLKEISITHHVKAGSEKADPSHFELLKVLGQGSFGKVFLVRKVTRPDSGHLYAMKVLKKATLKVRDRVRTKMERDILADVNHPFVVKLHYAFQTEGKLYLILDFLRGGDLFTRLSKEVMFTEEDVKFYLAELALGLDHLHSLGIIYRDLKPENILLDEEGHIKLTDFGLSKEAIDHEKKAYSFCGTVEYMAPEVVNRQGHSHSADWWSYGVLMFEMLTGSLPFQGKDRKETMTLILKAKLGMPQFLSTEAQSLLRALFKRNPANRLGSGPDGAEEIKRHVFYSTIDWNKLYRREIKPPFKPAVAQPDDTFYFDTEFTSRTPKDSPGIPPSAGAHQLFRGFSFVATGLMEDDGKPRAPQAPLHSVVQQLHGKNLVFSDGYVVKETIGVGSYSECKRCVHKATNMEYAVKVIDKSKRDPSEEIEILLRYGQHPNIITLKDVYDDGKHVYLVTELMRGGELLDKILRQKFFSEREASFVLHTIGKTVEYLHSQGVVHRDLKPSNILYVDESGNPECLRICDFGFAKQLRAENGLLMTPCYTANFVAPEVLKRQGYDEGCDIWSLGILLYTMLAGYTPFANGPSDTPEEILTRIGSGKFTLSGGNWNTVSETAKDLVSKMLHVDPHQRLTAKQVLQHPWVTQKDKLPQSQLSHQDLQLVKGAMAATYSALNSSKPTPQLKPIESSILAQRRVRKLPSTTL
Chain of Calcium/calmodulin-dependent protein kinase kinase 1 (Homo sapiens) (Q8N5S9 whole entry, looked up): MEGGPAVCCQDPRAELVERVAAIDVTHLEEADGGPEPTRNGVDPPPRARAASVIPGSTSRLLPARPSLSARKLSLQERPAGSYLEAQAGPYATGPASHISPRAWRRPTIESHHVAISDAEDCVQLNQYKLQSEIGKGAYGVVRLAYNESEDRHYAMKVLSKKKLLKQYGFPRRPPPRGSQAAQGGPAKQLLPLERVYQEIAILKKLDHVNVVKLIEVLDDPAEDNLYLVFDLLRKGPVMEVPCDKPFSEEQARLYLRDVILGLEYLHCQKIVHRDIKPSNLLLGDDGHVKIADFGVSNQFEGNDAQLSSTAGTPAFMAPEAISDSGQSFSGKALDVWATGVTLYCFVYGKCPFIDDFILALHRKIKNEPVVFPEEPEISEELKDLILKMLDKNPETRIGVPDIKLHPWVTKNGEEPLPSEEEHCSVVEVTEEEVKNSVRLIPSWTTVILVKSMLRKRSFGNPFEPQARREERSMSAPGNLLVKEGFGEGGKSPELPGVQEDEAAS
Chain of Mitogen-activated protein kinase kinase kinase 20 (Homo sapiens) (Q9NYL2 2-800 limits assumed): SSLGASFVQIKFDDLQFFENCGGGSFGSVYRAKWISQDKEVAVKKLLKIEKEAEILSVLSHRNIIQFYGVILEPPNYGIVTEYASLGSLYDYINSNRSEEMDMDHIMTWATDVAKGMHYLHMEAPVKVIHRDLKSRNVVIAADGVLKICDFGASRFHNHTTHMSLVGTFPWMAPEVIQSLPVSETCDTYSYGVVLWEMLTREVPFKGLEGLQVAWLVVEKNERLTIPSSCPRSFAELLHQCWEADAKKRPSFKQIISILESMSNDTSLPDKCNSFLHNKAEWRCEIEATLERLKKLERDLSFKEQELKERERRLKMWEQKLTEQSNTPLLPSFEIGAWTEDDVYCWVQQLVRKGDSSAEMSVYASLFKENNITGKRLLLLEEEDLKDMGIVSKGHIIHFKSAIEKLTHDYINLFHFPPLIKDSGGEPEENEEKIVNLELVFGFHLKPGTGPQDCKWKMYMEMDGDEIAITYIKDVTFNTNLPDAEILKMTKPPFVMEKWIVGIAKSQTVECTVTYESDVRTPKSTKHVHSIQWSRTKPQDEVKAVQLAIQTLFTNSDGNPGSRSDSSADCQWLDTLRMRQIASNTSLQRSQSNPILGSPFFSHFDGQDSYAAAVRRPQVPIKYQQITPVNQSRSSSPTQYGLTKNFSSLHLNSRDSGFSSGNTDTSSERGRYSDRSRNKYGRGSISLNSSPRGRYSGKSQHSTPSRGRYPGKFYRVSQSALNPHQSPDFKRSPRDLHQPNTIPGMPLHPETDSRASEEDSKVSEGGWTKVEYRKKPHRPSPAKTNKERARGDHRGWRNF
Chain of Serine/threonine-protein kinase PAK 2 (Homo sapiens) (Q13177 whole entry): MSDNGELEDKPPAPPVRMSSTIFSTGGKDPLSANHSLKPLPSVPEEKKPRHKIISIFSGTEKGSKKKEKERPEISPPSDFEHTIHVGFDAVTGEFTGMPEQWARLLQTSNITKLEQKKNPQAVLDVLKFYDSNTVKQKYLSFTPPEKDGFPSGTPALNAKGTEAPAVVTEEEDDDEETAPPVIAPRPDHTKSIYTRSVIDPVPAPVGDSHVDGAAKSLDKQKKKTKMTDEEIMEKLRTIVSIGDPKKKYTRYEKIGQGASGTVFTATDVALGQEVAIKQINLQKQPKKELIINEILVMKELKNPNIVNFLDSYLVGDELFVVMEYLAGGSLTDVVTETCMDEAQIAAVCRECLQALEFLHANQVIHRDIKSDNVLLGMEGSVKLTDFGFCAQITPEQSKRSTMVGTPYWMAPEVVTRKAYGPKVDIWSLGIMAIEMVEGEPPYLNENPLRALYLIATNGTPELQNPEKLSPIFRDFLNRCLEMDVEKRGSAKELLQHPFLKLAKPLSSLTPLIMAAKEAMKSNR
Chain of Casein kinase I isoform delta (Homo sapiens) (P48730 whole entry, looked up, the tested form may be a part, canonical isoform): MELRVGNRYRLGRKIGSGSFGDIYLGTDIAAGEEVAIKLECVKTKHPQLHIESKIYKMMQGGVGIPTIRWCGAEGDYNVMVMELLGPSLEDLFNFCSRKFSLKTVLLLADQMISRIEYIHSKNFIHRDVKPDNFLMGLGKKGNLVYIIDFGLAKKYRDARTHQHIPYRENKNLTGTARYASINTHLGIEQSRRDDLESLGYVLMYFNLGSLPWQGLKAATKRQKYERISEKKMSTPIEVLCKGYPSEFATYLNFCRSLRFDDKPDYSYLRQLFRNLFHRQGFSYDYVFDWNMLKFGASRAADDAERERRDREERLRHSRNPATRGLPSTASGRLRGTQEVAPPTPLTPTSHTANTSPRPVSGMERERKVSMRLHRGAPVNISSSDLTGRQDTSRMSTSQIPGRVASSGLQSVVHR
Chain of Serine/threonine-protein kinase NLK (Homo sapiens) (Q9UBE8 whole entry): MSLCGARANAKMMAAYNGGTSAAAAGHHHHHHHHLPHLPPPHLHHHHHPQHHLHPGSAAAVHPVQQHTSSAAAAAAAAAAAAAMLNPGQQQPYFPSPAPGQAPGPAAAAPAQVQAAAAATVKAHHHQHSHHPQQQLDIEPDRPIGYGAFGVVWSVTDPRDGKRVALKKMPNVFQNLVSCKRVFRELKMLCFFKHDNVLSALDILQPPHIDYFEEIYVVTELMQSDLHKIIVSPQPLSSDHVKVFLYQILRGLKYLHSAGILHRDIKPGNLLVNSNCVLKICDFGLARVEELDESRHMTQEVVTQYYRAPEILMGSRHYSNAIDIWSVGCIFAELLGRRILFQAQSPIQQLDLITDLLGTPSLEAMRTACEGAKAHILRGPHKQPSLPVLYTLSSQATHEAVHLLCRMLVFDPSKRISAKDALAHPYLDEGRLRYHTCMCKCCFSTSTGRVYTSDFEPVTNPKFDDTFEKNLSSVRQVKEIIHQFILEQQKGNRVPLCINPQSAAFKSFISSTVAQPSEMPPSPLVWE
Chain of Serine/threonine-protein kinase Chk2 (Homo sapiens) (O96017 whole entry): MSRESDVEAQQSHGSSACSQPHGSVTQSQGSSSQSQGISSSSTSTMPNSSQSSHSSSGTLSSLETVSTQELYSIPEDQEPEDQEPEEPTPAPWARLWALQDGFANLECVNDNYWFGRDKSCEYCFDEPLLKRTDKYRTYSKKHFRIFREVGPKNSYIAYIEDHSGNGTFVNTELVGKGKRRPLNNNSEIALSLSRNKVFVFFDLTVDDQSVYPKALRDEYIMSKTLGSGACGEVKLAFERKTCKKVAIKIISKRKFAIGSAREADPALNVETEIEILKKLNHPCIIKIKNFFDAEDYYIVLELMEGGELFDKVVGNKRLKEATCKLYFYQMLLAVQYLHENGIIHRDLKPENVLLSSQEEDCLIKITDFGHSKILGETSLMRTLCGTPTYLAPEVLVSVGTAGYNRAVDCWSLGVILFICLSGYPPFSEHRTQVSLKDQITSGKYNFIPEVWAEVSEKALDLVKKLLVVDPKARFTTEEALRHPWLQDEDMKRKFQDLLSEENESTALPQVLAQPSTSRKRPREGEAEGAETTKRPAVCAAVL
Chain of Serine/threonine-protein kinase 24 (Homo sapiens) (Q9Y6E0 whole entry, looked up): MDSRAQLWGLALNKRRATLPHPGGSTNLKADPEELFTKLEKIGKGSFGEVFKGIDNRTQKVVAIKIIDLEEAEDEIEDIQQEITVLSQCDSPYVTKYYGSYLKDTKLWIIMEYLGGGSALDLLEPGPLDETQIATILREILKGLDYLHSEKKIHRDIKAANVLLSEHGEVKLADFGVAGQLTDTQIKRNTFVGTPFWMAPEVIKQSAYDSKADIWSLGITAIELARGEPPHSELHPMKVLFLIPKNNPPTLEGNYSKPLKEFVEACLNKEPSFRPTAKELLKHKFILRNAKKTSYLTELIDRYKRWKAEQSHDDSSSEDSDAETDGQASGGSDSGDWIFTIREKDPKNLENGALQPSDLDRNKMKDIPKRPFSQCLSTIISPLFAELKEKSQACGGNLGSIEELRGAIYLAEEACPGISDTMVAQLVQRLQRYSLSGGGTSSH

CC(C)(O)CNc1ncc(-c2ccnc(Nc3ccnc(Cl)c3)n2)c(CC2CC2)n1
Activity [1]: 108%
Activity [2]: 105%
Activity [3]: 105%
Activity [4]: 99%
Activity [5]: 91%
inhibition [6]: inactive
inhibition [7]: inactive
inhibition [8]: inactive
inhibition [9]: inactive
inhibition [10]: inactive
inhibition [11]: inactive
inhibition [12]: inactive
inhibition [13]: inactive
inhibition [14]: inactive
inhibition [15]: inactive
inhibition [16]: inactive
inhibition [17]: inactive
inhibition [18]: inactive
inhibition [19]: inactive
inhibition [20]: inactive
inhibition [21]: inactive
IC50 [22]: > 10 µM
